From US9169254B2, “Spiroimidazolone derivative” (Chugai Seiyaku Kabushiki Kaisha, priority 2009, dated 2015)
Structures can show the parent of a compound that is named as a salt.

Target: T1, human PTH1 receptor (Homo sapiens, UniProt Q03431)
T1 sequence (Q03431 27-593): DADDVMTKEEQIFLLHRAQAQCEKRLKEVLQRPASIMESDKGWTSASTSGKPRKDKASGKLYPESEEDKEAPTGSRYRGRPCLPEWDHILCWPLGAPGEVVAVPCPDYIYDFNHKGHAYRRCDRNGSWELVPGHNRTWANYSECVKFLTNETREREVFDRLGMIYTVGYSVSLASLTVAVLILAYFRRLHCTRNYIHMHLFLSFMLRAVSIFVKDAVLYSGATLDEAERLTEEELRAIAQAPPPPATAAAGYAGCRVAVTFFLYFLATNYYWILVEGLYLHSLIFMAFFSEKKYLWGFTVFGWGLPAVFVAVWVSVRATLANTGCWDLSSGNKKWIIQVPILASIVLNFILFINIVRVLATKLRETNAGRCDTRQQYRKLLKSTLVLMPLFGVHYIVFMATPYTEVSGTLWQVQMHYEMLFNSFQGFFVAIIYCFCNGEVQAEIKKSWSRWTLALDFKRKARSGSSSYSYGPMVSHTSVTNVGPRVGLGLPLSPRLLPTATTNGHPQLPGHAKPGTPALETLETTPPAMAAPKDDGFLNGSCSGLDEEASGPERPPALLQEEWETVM
Test: In vitro cAMP signal activity in HKRK-B7 cells (LLC-PK1 cells overexpressing the human PTH1 receptor)
Format: cell-based
Conditions: HKRK-B7 cells, compound at 1×10^−3 M

[1] = cAMP produced as percentage of that produced by hPTH(1-34) at 100 nM

## CC(=O)OC[C@H](CN(C(C)=O)c1ccc(CCS(=O)(=O)N2CCC3(CC2)N=C(c2ccc(OC(F)(F)F)cc2)NC3=O)c(C)c1)OC(C)=O [Compound 152, acetic acid (S)-1-acetoxymethyl-2-[acetyl-(3-methyl-4-{2-[4-oxo-2-(4-trifluoromethoxy-phenyl)-1,3,8-triaza-spiro[4.5]dec-1-ene-8-sulfonyl]-ethyl}-phenyl)-amino]-ethyl ester]
[1]
  cAMP production activity (%): 47%

## O=C1NC(C2CCCCC2)=NC12CCN(S(=O)(=O)/C=C/c1cc3nc[nH]c3cc1C(F)(F)F)CC2 [Compound 499, 2-cyclohexyl-8-[(E)-2-(6-trifluoromethyl-1H-benzimidazol-5-yl)-ethenesulfonyl]-1,3,8-triaza-spiro[4.5]dec-1-en-4-one]
[1]
  cAMP production activity (%): 40%

## Cc1cc(CC(N)=O)ccc1CCS(=O)(=O)N1CCC2(CC1)N=C(C1CCC(C)CC1)NC2=O (stereo not drawn) [Compound 750, 2-(3-Methyl-4-{2-[2-(4-methyl-cyclohexyl)-4-oxo-1,3,8-triaza-spiro[4.5]dec-1-ene-8-sulfonyl]-ethyl}-phenyl)-acetamide]
[1]
  cAMP production activity (%): 87%

## CC(=O)N(C)Cc1cc(C)c(CCS(=O)(=O)N2CCC3(CC2)N=C(C2CCC(C)CC2)NC3=O)c(C)c1 (stereo not drawn) [Compound 785, N-(3,5-dimethyl-4-{2-[2-(4-methyl-cyclohexyl)-4-oxo-1,3,8-triaza-spiro[4.5]dec-1-ene-8-sulfonyl]-ethyl}-benzyl)-N-methyl-acetamide]
[1]
  cAMP production activity (%): 92%

## Cc1cc(C(=O)N2CCCCC2)ccc1CCS(=O)(=O)N1CCC2(CC1)N=C(c1cccc(C(F)(F)F)c1)NC2=O [Compound 380, 8-{2-[2-methyl-4-(piperidine-1-carbonyl)-phenyl]-ethanesulfonyl}-2-(3-trifluoromethyl-phenyl)-1,3,8-triaza-spiro[4.5]dec-1-en-4-one]
[1]
  cAMP production activity (%): 75%

## Cc1cc(C(=O)N2CCS(=O)(=O)CC2)ccc1CCS(=O)(=O)N1CCC2(CC1)N=C(C1CCCCC1)NC2=O [Compound 841, 2-cyclohexyl-8-{2-[4-(1,1-dioxo-1λ^6-thiomorpholine-4-carbonyl)-2-methyl-phenyl]-ethanesulfonyl}-1,3,8-triaza-spiro[4.5]dec-1-en-4-one]
[1]
  cAMP production activity (%): 45%

## CCCCCc1ccc(C2=NC3(CCN([S@TB18](=O)(=O)/C=C/c4c(C)cc(N(C)C(N)=O)cc4C)CC3)C(=O)N2)cc1OC [Compound 1128, 1-(4-{(E)-2-[2-(3-methoxy-4-pentyl-phenyl)-4-oxo-1,3,8-triaza-spiro[4.5]dec-1-ene-8-sulfonyl]-vinyl}-3,5-dimethyl-phenyl)-1-methyl-urea]
[1]
  cAMP production activity (%): 119%

## Cc1nc(CC(=O)N2CCCC(C3=NC4(CCN(S(=O)(=O)CCc5cccc6ccccc56)CC4)C(=O)N3)C2)c(C)s1 (stereo not drawn) [Compound 433, 2-{1-[2-(2,5-dimethyl-thiazol-4-yl)-acetyl]-piperidin-3-yl}-8-(2-naphthalen-1-yl-ethanesulfonyl)-1,3,8-triaza-spiro[4.5]dec-1-en-4-one]
[1]
  cAMP production activity (%): 18%

## Cc1cc(C(=O)N2CCNCC2)cc(C)c1/C=C/S(=O)(=O)N1CCC2(CC1)N=C(c1cccc(OC(F)(F)F)c1)NC2=O [Compound 446, 8-{(E)-2-[2,6-dimethyl-4-(piperazine-1-carbonyl)-phenyl]-ethenesulfonyl}-2-(3-trifluoromethoxy-phenyl)-1,3,8-triaza-spiro[4.5]dec-1-en-4-one hydrochloride]
[…], 0.1 µM
  cAMP production activity (%): 49%

## Cc1cc(S(=O)(=O)NCCN(C)C)ccc1/C=C/S(=O)(=O)N1CCC2(CC1)N=C(C1CCCCC1)NC2=O [Compound 503, 4-[(E)-2-(2-cyclohexyl-4-oxo-1,3,8-triaza-spiro[4.5]dec-1-ene-8-sulfonyl)-vinyl]-N-(2-dimethylamino-ethyl)-3-methyl-benzenesulfonamide]
[1]
  cAMP production activity (%): 67%

## Cc1cc(C(=O)N2CCC(OC[C@H](O)CO)CC2)cc(C)c1/C=C/S(=O)(=O)N1CCC2(CC1)N=C(CCCCCCCCC(F)(F)F)NC2=O [Compound 1010, 8-((E)-2-{4-[4-((R)-2,3-Dihydroxy-propoxy)-piperidine-1-carbonyl]-2,6-dimethyl-phenyl}-ethenesulfonyl)-2-(9,9,9-trifluoro-nonyl)-1,3,8-triaza-spiro[4.5]dec-1-en-4-one]
[1]
  cAMP production activity (%): 96%

## Cc1noc(C)c1S(=O)(=O)N1CCC2(CC1)N=C(C1CCCCC1)NC2=O [Compound 59, 2-cyclohexyl-8-(3,5-dimethyl-isoxazole-4-sulfonyl)-1,3,8-triaza-spiro[4.5]dec-1-en-4-one]
[1]
  cAMP production activity (%): 56%

## CCCCCCCCCC1=NC2(CCN(S(=O)(=O)CCc3ccc(N(CCO)S(C)(=O)=O)cc3C)CC2)C(=O)N1 [Compound 720, N-(2-Hydroxy-ethyl)-N-{3-methyl-4-[2-(2-nonyl-4-oxo-1,3,8-triaza-spiro[4.5]dec-1-ene-8-sulfonyl)-ethyl]-phenyl}-methanesulfonamide]
[1]
  cAMP production activity (%): 82%

## Cc1cc(C(=O)N2CCS(=O)(=O)CC2)cc(C)c1CCS(=O)(=O)N1CCC2(CC1)N=C(C1CCC(C)CC1)NC2=O (stereo not drawn) [Compound 1183, 8-{2-[4-(1,1-dioxo-1λ^6-thiomorpholine-4-carbonyl)-2,6-dimethyl-phenyl]-ethanesulfonyl}-2-(4-methyl-cyclohexyl)-1,3,8-triaza-spiro[4.5]dec-1-en-4-one]
[1]
  cAMP production activity (%): 90%

## [2H]C([2H])([2H])C([2H])([2H])C([2H])([2H])C([2H])([2H])Oc1ccc(C2=NC3(CCN(S(=O)(=O)/C=C/c4c(C)cc(C(=O)N5CCC(C)(O)CC5)cc4C)CC3)C(=O)N2)cc1C(F)(F)F [Compound 1220, 2-(4-[1,1,2,2,3,3,4,4,4-^2H9]butoxy-3-trifluoromethyl-phenyl)-8-{(E)-2-[4-(4-hydroxy-4-methyl-piperidine-1-carbonyl)-2,6-dimethyl-phenyl]-ethenesulfonyl}-1,3,8-triaza-spiro[4.5]dec-1-en-4-one]
[1]
  cAMP production activity (%): 80%

## CN(C)C(=O)CNc1ccc(/C=C/S(=O)(=O)N2CCC3(CC2)N=C(C2CCCCC2)NC3=O)c(C(F)(F)F)c1 [Compound 201, 2-{4-[(E)-2-(2-cyclohexyl-4-oxo-1,3,8-triaza-spiro[4.5]dec-1-ene-8-sulfonyl)-vinyl]-3-trifluoromethyl-phenylamino}-N,N-dimethyl-acetamide]
[1]
  cAMP production activity (%): 56%

## CCOCc1cc(NC(C)=O)ccc1/C=C/S(=O)(=O)N1CCC2(CC1)N=C(C1CCC(C)CC1)NC2=O (stereo not drawn) [Compound 576, N-(3-ethoxymethyl-4-{(E)-2-[2-(4-methyl-cyclohexyl)-4-oxo-1,3,8-triaza-spiro[4.5]dec-1-ene-8-sulfonyl]-vinyl}-phenyl)-acetamide]
[1]
  cAMP production activity (%): 95%

## Cc1cc(C(=O)N2CCC(O)CC2)cc(C)c1CC(F)(F)S(=O)(=O)N1CCC2(CC1)N=C(c1cccc(OC(F)(F)F)c1)NC2=O [Compound 1101, 8-{1,1-Difluoro-2-[4-(4-hydroxy-piperidine-1-carbonyl)-2,6-dimethyl-phenyl]-ethanesulfonyl}-2-(3-trifluoromethoxy-phenyl)-1,3,8-triaza-spiro[4.5]dec-1-en-4-one]
[1]
  cAMP production activity (%): 110%
